Experimental data taken from patent publication US4835168A, “Thiadiazole antiviral agents” (Eli Lilly and Company, priority 1988, dated 1989).
Values after ≈ are worked out from the molar mass of the structure shown. “Also recorded” adds a separate entry of the source. Where a name gives a salt, the structure may show the parent alone. Read-outs that look alike come from different tables or passages of the source.

Tests used:
influenza B-Taiwan = test: survival of infected mice, oral in diet (Table II); assay type: in vivo; details: control 1/36
Source text: (§1) Again, due to the nature of in vivo antiviral tests the in vivo antiviral influenza activity of the compounds can vary. […] A typical test would run for at least ten days.

influenza Al-Ann Arbor [1] = test: survival of infected mice, oral in diet (Table II); assay type: in vivo; details: control 0/50
Source text: as §1

influenza A-Texas = test: survival of infected mice, oral in diet (Table II); assay type: in vivo; details: control 8/36
Source text: as §1

influenza B-Great Lake [2] = test: survival of infected mice, oral in diet (Table II); assay type: in vivo; details: control 3/36
Source text: as §1

influenza A-Brazil = test: survival of infected mice, oral in diet (Table II); assay type: in vivo; details: control 10/28
Source text: as §1

influenza B-Maryland = test: survival of infected mice, oral in diet (Table II); assay type: in vivo; details: control 14/50
Source text: as §1

influenza B-Hong Kong = test: survival of infected mice, oral in diet (Table II); assay type: in vivo; details: control 4/50
Source text: as §1

influenza A-NWS = test: plaque-reduction study in MDCK cells (Table III); assay type: cell-based; details: values marked *: one discordant test >50 not incorporated; for IC50: MDCK, read-out: IC50, inhibition of plaque formation by 50 percent
influenza Al-Ann Arbor [3] = test: plaque-reduction study in MDCK cells (Table III); assay type: cell-based; details: for IC50: MDCK, read-out: IC50, inhibition of plaque formation by 50 percent
[4] = system: Vesicular Stomatitus Virus; test: in vitro activity against Vesicular Stomatitus Virus; assay type: cell-based
influenza B-Great Lake [5] = test: plaque-reduction study in MDCK cells (Table III); assay type: cell-based; details: for IC50: MDCK, read-out: IC50, inhibition of plaque formation by 50 percent
[6] = system: influenza A1-Ann Arbor strain; test: in vivo mouse influenza test, survival index, relative activity (Table I); details: CD-1 mice, 10 days
Herpes I = test: plaque-reduction test (Table V); assay type: cell-based; details: BSCl cells, read-out: IC50, inhibition of plaque formation by 50 percent
Vaccinia = test: microbe, parasite or virus in culture; assay type: cell-based; details: Orthopoxvirus vaccinia, read-out: IC50, inhibition of plaque formation by 50 percent
RSV = test: in vivo antiviral test in hamster (Table IV); details: reduction in nasal washing virus titer vs control
Method: (§2) As previously mentioned, in vivo antiviral test results may vary due to numerous factors. […] The compounds of Examples 1 and 7 were tested against several different viruses using different kinds of test animals and different modes of oral and topical administration. In Table IV below, Column 1 indicated the test compound, while Column 2 discloses the virus the compound was employed against. Columns 3 and 4 describe the test animal and the method of administration, respectively. Finally, Column 5 discloses whether or not antiviral activity was shown.

HSV II = test: in vivo antiviral test in guinea pig (Table IV); details: topical cream, fewer lesions than control
Method: as §2

Herpes II = test: plaque-reduction test (Table V); assay type: cell-based; details: BSCl cells, read-out: IC50, inhibition of plaque formation by 50 percent
HIV = test: preliminary testing against retroviruses
Friend Leukemia = test: preliminary testing against retroviruses
HSV I = test: in vivo antiviral test in mouse (Table IV); details: drinking water, more survivors than control
Method: as §2

Semliki Forest = test: plaque-reduction test (Table V); assay type: cell-based; details: BSCl cells, read-out: IC50, inhibition of plaque formation by 50 percent
Parainfluenza (type 3) = test: plaque-reduction test (Table V); assay type: cell-based; details: read-out: IC50, inhibition of plaque formation by 50 percent
[7] = in vivo conversion to salt form of the compound of Example 6
[8] = Malinoski et al., Virology 1981; cited from earlier work

## NC(=S)Nc1nncs1 [Preparation 2, 1,3,4-Thiadiazol-2-ylthiourea]
Influenza B-Taiwan; 15 mg/kg/day
  number of animals surviving over number tested (S/N): 4/18
Influenza B-Taiwan; 30 mg/kg/day
  number of animals surviving over number tested (S/N): 15/18
Influenza B-Taiwan; 60 mg/kg/day
  number of animals surviving over number tested (S/N): 18/18
Influenza B-Taiwan; 120 mg/kg/day
  number of animals surviving over number tested (S/N): 18/18
Influenza Al-Ann Arbor [1]; 60 mg/kg/day
  number of animals surviving over number tested (S/N): 20/20
Influenza Al-Ann Arbor [1]; 120 mg/kg/day
  number of animals surviving over number tested (S/N): 20/20
Influenza A-Texas; 15 mg/kg/day
  number of animals surviving over number tested (S/N): 5/18
Influenza A-Texas; 30 mg/kg/day
  number of animals surviving over number tested (S/N): 8/18
Influenza A-Texas; 60 mg/kg/day
  number of animals surviving over number tested (S/N): 12/18
Influenza A-Texas; 120 mg/kg/day
  number of animals surviving over number tested (S/N): 16/18
Influenza B-Great Lake [2]; 15 mg/kg/day
  number of animals surviving over number tested (S/N): 11/18
Influenza B-Great Lake [2]; 30 mg/kg/day
  number of animals surviving over number tested (S/N): 16/18
Influenza B-Great Lake [2]; 60 mg/kg/day
  number of animals surviving over number tested (S/N): 17/18
Influenza B-Great Lake [2]; 120 mg/kg/day
  number of animals surviving over number tested (S/N): 18/18
Influenza A-Brazil; 15 mg/kg/day
  number of animals surviving over number tested (S/N): 5/15
Influenza A-Brazil; 30 mg/kg/day
  number of animals surviving over number tested (S/N): 5/16
Influenza A-Brazil; 60 mg/kg/day
  number of animals surviving over number tested (S/N): 12/18
Influenza A-Brazil; 120 mg/kg/day
  number of animals surviving over number tested (S/N): 14/18
Influenza B-Maryland; 60 mg/kg/day
  number of animals surviving over number tested (S/N): 19/20
Influenza B-Maryland; 120 mg/kg/day
  number of animals surviving over number tested (S/N): 20/20
Influenza B-Hong Kong; 60 mg/kg/day
  number of animals surviving over number tested (S/N): 10/20
Influenza B-Hong Kong; 120 mg/kg/day
  number of animals surviving over number tested (S/N): 16/20
Influenza A-NWS
  IC50: 3.6 µg/mL (≈ 22.5 µM)
Influenza Al-Ann Arbor [3]
  IC50: > 50 µg/mL
[4]
  in vitro activity against Vesicular Stomatitus Virus: displays in vitro activity
Influenza B-Great Lake [5]
  IC50: 7 µg/mL (≈ 43.7 µM)

## N#CCSC(N)=Nc1nncs1 [Example 5, N^1-1,3,4-thiadiazol-2-ylcarbamimidothioic acid, cyanomethyl ester]
[6]
  RA (relative activity index from P, percent of maximum survival index): 2.5

## COC(=O)NC(=S)Nc1nncs1 [Preparation 5, [(1,3,4-thiadiazol-2-ylamino)thioxomethyl]carbamic acid, methyl ester]
[6]
  RA (relative activity index from P, percent of maximum survival index): 5 (80-100% = 5 (very active))

## N#CNc1nncs1 [Example 6, 1,3,4-Thiadiazole-2-cyanamide]
Influenza A-NWS
  IC50: 0.78 µg/mL (≈ 6.18 µM)
Influenza Al-Ann Arbor [3]
  IC50: 0.85 µg/mL (≈ 6.74 µM)
Influenza B-Great Lake [5]
  IC50, inhibition of plaque formation by 50 percent: 2.25 MCG/ML

## NC(N)=Nc1nncs1 [Example 8, 1,3,4-Thiadiazole-2-guanidine]
Influenza Al-Ann Arbor [3]
  IC50: 0.02 µg/mL (≈ 0.14 µM)
Influenza B-Great Lake [5]
  IC50: 0.27 µg/mL (≈ 1.89 µM)

## CCOC(=O)N=C(Nc1nncs1)SCC [Preparation 8]
Influenza A-NWS
  IC50: > 50 µg/mL
[6]
  RA (relative activity index from P, percent of maximum survival index): 5 (80-100% = 5 (very active))

## CCOC(=O)NC(=S)Nc1nncs1 [Preparation 1, [(1,3,4-Thiadiazol-2-ylamino)thioxomethyl]carbamic acid, ethyl ester]
Influenza A-NWS
  IC50: 43 µg/mL (≈ 185 µM)
[6]
  RA (relative activity index from P, percent of maximum survival index): 4.5
Influenza B-Great Lake [5]
  IC50: > 50 µg/mL

## N#CNc1nncs1 [Example 7, 1,3,4-Thiadiazole-2-cyanamide Sodium salt]
Influenza A-NWS; Sodium salt
  IC50, inhibition of plaque formation by 50 percent: 0.58 MCG/ML
Herpes I
  IC50: 2.95 µg/mL
Vaccinia; Vero
  IC50: 0.29 µg/mL
Vaccinia
  IC50: < 0.31 µg/mL
RSV; food
  antiviral activity shown (Result): active
HSV II
  antiviral activity shown (Result): active
Herpes II
  IC50: 0.19 µg/mL
Influenza Al-Ann Arbor [3]; Sodium salt
  IC50, inhibition of plaque formation by 50 percent: 0.82 MCG/ML
HIV
  activity against retroviruses: failed to demonstrate conclusive activity
Friend Leukemia
  activity against retroviruses: failed to demonstrate conclusive activity
HSV I
  antiviral activity shown (Result): active
[4]
  in vitro activity against Vesicular Stomatitus Virus: does not
Influenza B-Great Lake [5]; Sodium salt
  IC50, inhibition of plaque formation by 50 percent: 1.00 MCG/ML
Semliki Forest
  IC50: < 0.23 µg/mL
Parainfluenza (type 3); BSCl cells
  IC50: 0.14 µg/mL
Parainfluenza (type 3); HELA cells
  IC50: 0.72 µg/mL

## CCOC(=O)N=C(Nc1nncs1)SC [Preparation 7, [(Methylthio)(1,3,4-thiadiazol-2-ylamino)methyl]carbamic acid, ethyl ester]
Influenza A-NWS
  IC50: 75.5 µg/mL (≈ 307 µM)
[6]
  RA (relative activity index from P, percent of maximum survival index): 5 (80-100% = 5 (very active))

## C=COC(=O)NC(=S)Nc1nncs1 [Preparation 6, [(1,3,4-thiadiazol-2-ylamino)thioxomethyl]carbamic acid, vinyl ester]
[6]
  RA (relative activity index from P, percent of maximum survival index): 4 (60-80% = 4 (good activity))

## CCCCSC(N)=Nc1nncs1 [Example 3, N^1-1,3,4-thiadiazol-2-ylcarbamimidothioic acid, n-butyl ester]
Influenza A-NWS
  IC50: 21.3 µg/mL (≈ 98.5 µM)
[6]
  RA (relative activity index from P, percent of maximum survival index): 5 (80-100% = 5 (very active))
Influenza B-Great Lake [5]
  IC50: > 50 µg/mL

## CSC(N)=Nc1nncs1 [Example 1, N^1-1,3,4-thiadiazol-2-ylcarbamimidothioic acid, methyl ester]
Herpes I
  IC50: 9.6 µg/mL (≈ 55.1 µM)
[6]
  RA (relative activity index from P, percent of maximum survival index): 5 (80-100% = 5 (very active))
Vaccinia
  IC50: 15.8 µg/mL (≈ 90.7 µM)
RSV; drinking water
  antiviral activity shown (Result): active
[7]
  conversion in vivo to a salt form of the compound of Example 6: converted to a salt form of the compound of Example 6; also recorded: converted in vivo to a salt form
Influenza Al-Ann Arbor [3]
  IC50: 0.68 µg/mL (≈ 3.9 µM)
HSV I
  antiviral activity shown (Result): active
Influenza B-Great Lake [5]
  IC50: 16.3 µg/mL (≈ 93.5 µM)
Semliki Forest
  IC50: 43 µg/mL (≈ 247 µM)
Parainfluenza (type 3); BSCl cells
  IC50: 4.5 µg/mL (≈ 25.8 µM)
Parainfluenza (type 3); HELA cells
  IC50: > 25 µg/mL

## O=C(NC(=S)Nc1nncs1)Oc1ccccc1 [Preparation 3, [(1,3,4-Thiadiazol-2-ylamino)thioxomethyl]carbamic acid, phenyl ester]
Influenza A-NWS
  IC50: < 1.6 µg/mL
[6]
  RA (relative activity index from P, percent of maximum survival index): 5 (80-100% = 5 (very active))

## Nc1nncs1 [2-amino-1,3,4-thiadiazole]
[8]
  antiviral activity: certain antiviral activity

## CCSC(N)=Nc1nncs1 [Example 2, N^1-1,3,4-thiadiazol-2-ylcarbamimidothioic acid, ethyl ester]
Influenza A-NWS
  IC50: 18.9 µg/mL (≈ 100 µM)
[6]
  RA (relative activity index from P, percent of maximum survival index): 5 (80-100% = 5 (very active))
Influenza B-Great Lake [5]
  IC50: 9.5 µg/mL (≈ 50.5 µM)

## CCCCCCOC(=O)NC(=S)Nc1nncs1 [Preparation 4, [(1,3,4-Thiadiazol-2-ylamino)thioxomethyl]carbamic acid, n-hexyl ester]
[6]
  RA (relative activity index from P, percent of maximum survival index): 5 (80-100% = 5 (very active))

## NC(=Nc1nncs1)SCc1ccccn1 [Example 4, N^1-1,3,4-thiadiazol-2-ylcarbamimidothioic acid, 2-pyridinylmethyl ester, hydrochloride]
Influenza A-NWS
  IC50: > 50 µg/mL
[6]
  RA (relative activity index from P, percent of maximum survival index): 2.5
Influenza B-Great Lake [5]
  IC50: > 50 µg/mL
